From US12472168B2, “Ring-fused thiazolino 2-pyridones, methods for preparation thereof and their use in the treatment and/or prevention of a disease involving gram-positive bacteria” (Quretech Bio AB, priority 2017, dated 2025)
≈ marks a conversion by molar mass, not a printed value.

What was measured:
C. diff = test: MIC and MBC assays; type: cell-based, Clostridium difficile; conditions: Clostridioides difficile, compound alone, no antibiotic; for MIC: overnight (18 hrs)
Description: (§1) […]. MIC was defined by the lowest concentration of the test compound that inhibits visible growth of pathogen of interest. The optical density of the pathogen of interest culture was measured by OD600.
(§2) […]. MBC was determined colony forming units (CFUs) enumeration by serially diluting and plating bacterial cultures on BHI plates.
(§3) . Thus, no antibiotic was used in Table 2.

E. faecalis = test: MIC and MBC assays; type: cell-based; conditions: Enterococcus faecalis, compound alone, no antibiotic; for MIC: overnight (18 hrs)
Description: (§4) MIC was defined by the lowest concentration of the test compound that inhibits visible growth of pathogen of interest. The optical density of the pathogen of interest culture was measured by OD600.
(§5) MBC was determined colony forming units (CFUs) enumeration by serially diluting and plating bacterial cultures on BHI plates.
(§6) Thus, no antibiotic was used in Table 2.

Streptococcus = test: MIC and MBC assays; type: cell-based; conditions: compound alone, no antibiotic
Description: as §4, §5, §6

Staph. saphyticus = test: MIC and MBC assays; type: cell-based; conditions: Staphylococcus, compound alone, no antibiotic; for MIC: overnight (18 hrs)
Description: as §1, §2, §3

Staph. aureus = test: MIC and MBC assays; type: cell-based; conditions: Staphylococcus aureus, compound alone, no antibiotic; for MIC: overnight (18 hrs)
Description: as §1, §2, §3

Strep. pyogenes = test: MIC and MBC assays; type: cell-based; conditions: Streptococcus pyogenes, compound alone, no antibiotic; for MIC: overnight (18 hrs)
Description: as §1, §2, §3

MRSA [1] = test: Minimum Inhibitory Concentration (MIC) and Minimum Bactericidal Concentration (MBC) assays; type: cell-based, Methicillin-resistant Staphylococcus aureus; conditions: Staphylococcus aureus, compound alone, no antibiotic; for MIC: 18 h, overnight (18 hrs), read-out: MIC
Description: as §4, §5, §6

E. faecalis OG1RF = test: Stand alone activity in vivo, mouse model of catheter-associated urinary tract infection (CAUTI); set-up: species or system Enterococcus faecalis; conditions: C57BL/6Ncr mice, 10 mg/kg intraperitoneally 24 hours post-infection, sacrificed 48 hours post-infection, compound alone
Description: Mice used in this study were six-week-old female wild-type C57BL/6Ncr mice. Mice were anesthetized by inhalation of isoflurane and implanted with a 5-mm length of platinum-cured silicone catheter. Then, mice were infected immediately following catheter implantation with 50 μl of ˜2×10^7 CFU of E. faecalis OG1RF in PBS (1 mL) was introduced in the bladder lumen by transurethral inoculation. […] Mice were sacrificed at 48 hours post-infection by cervical dislocation after anaesthesia inhalation, and the bladders were aseptically harvested. Subsequently, the silicone implant was retrieved from the bladder. Catheters were placed in 1×PBS (1 mL), sonicated for 10 min, to detach E. faecalis and bladders were homogenized in 1×PBS (1 mL).
Mice used in this study were six-week-old female wild-type C57BL/6Ncr mice. Mice were anesthetized by inhalation of isoflurane and implanted with a 5-mm length of platinum-cured silicone catheter.
Mice were sacrificed at 48 hours post-infection by cervical dislocation after anaesthesia inhalation, and the bladders were aseptically harvested. Subsequently, the silicone implant was retrieved from the bladder. Catheters were placed in 1×PBS (1 mL), sonicated for 10 min, to detach E. faecalis and bladders were homogenized in 1×PBS (1 mL). For bacterial enumeration on catheters and bladder, samples were serially diluted and plated on BHI for CFU enumeration.

MRSA [2] = test: Effect of combination with Oxacillin on MRSA, CFU counts; type: cell-based, Methicillin-resistant Staphylococcus aureus; conditions: Oxacillin 9 μM and DMSO (no test compound), 37° C. 18 h
Description: The mixture (200 μL) was incubated at 37° C. for 18 h. A control without the test compound was performed in the same way.

SMILES | MBC (C. diff) [µM] | MIC (C. diff) [µM] | MBC (E. faecalis) [µM] | MIC (E. faecalis) [µM] | MBC (Streptococcus) [µM] | MBC (Staph. saphyticus) [µM] | MIC (Staph. saphyticus) [µM] | MBC (Staph. aureus) [µM] | MIC (Staph. aureus) [µM] | MBC (Strep. pyogenes) [µM] | MIC (Strep. pyogenes) [µM] | MIC (MRSA [1]) [µM] | MBC (MRSA [1]) [µM] | reduction of bacterial titers in the bladder (E. faecalis OG1RF) | reduction of bacterial titers on the catheters (E. faecalis OG1RF) | reduction of bacterial titers in the bladder (E. faecalis OG1RF; 10 mg/kg) | CFUs/ml (MRSA [2]; MRSA OD 0.001) [CFUs/ml] | CFUs/ml (MRSA [2]; MRSA OD 0.1) [CFUs/ml] | CFUs/ml (MRSA [2]; MRSA OD 1) [CFUs/ml]
Cc1cccc(-c2sc3c(C4CC4)c(Cc4cccc5ccccc45)cc(=O)n3c2C(=O)O)c1 [Example 30, 5-Cyclopropyl-4-[(1-naphthyl)methyl]-2-oxo-8-(m-tolyl)-7-thia-1-azabicyclo[4.3.0]nona-3,5,8-triene-9-carboxylic acid] | 50 (≈ 23.3 µg/mL) | 50 (≈ 23.3 µg/mL) | 100 (≈ 46.6 µg/mL) | 50 (≈ 23.3 µg/mL) | 19 (≈ 8.85 µg/mL) | 12.5 (≈ 5.82 µg/mL) | 100 (≈ 46.6 µg/mL) | 50 (≈ 23.3 µg/mL) | 50 (≈ 23.3 µg/mL) | 12.5 (≈ 5.82 µg/mL) | 25 (≈ 11.6 µg/mL) | 25 (≈ 11.6 µg/mL) | 50 (≈ 23.3 µg/mL) | about 1.5 log units | about 1 log units |  |  |  | 
O=C(O)C1CSc2c(-c3cccc(C(F)(F)F)c3)c(Cc3c4ccccc4cc4ccccc34)cc(=O)n21 (centres unmarked) [Example 37, 6-[(9-Anthryl)methyl]-4-oxo-7-[m-(trifluoromethyl)phenyl]-1-thia-3a-aza-3-indancarboxylic acid] | 50 (≈ 26.6 µg/mL) | 50 (≈ 26.6 µg/mL) | 400 (≈ 213 µg/mL) | 100 (≈ 53.2 µg/mL) |  | 25 (≈ 13.3 µg/mL) | > 500 | 50 (≈ 26.6 µg/mL) | 50 (≈ 26.6 µg/mL) | 12.5 (≈ 6.64 µg/mL) | 12.5 (≈ 6.64 µg/mL) | 25 (≈ 13.3 µg/mL) | 25 (≈ 13.3 µg/mL) |  |  |  |  |  | 
O=C(O)C1C(c2ccccc2)Sc2c(-c3ccc4c(c3)OCO4)c(COc3cccc4ccccc34)cc(=O)n21 (centres unmarked) [Example 39, 6-[(1-Naphthyloxy)methyl]-4-oxo-2-phenyl-7-(1,3-Dioxa-5-indanyl)-1-thia-3a-aza-3-indancarboxylic acid] | 100 (≈ 55 µg/mL) | 100 (≈ 55 µg/mL) | 900 (≈ 495 µg/mL) | 400 (≈ 220 µg/mL) |  | 25 (≈ 13.7 µg/mL) | > 500 | 200 (≈ 110 µg/mL) | 50 (≈ 27.5 µg/mL) | 25 (≈ 13.7 µg/mL) | 12.5 (≈ 6.87 µg/mL) | 50 (≈ 27.5 µg/mL) | 50 (≈ 27.5 µg/mL) |  |  |  |  |  | 
CCCOc1ccc(-c2sc3c(OC)c(Cc4cccc5ccccc45)cc(=O)n3c2C(=O)O)cc1C [Example 10, 5-Methoxy-4-[(1-naphthyl)methyl]-2-oxo-8-(4-propoxy-3-methyl-phenyl)-7-thia-1-azabicyclo[4.3.0]nona-3,5,8-triene-9-carboxylic acid] |  |  | 50 (≈ 25.7 µg/mL) | 188 (≈ 96.6 µg/mL) | 5 (≈ 2.57 µg/mL) |  |  |  |  |  |  | 17 (≈ 8.73 µg/mL) | 17 (≈ 8.73 µg/mL) |  |  |  |  |  | 
CCCOc1ccc(-c2sc3c(C4CC4)c(Cc4cccc5ccccc45)cc(=O)n3c2C(=O)O)cc1C [Example 2, 5-Cyclopropyl-4-[(1-naphthyl)methyl]-2-oxo-8-(4-propoxy-3-methyl-phenyl)-7-thia-1-azabicyclo[4.3.0]nona-3,5,8-triene-9-carboxylic acid] |  |  |  | 250 (≈ 131 µg/mL) | 5 (≈ 2.62 µg/mL) |  |  |  |  |  |  | 27 (≈ 14.1 µg/mL) | ≥ 50 |  |  |  |  |  | 
CCCCCCOc1ccc(-c2sc3c(C4CC4)c(Cc4cccc5ccccc45)cc(=O)n3c2C(=O)O)cc1C [Example 1, 5-Cyclopropyl-8-[4-(hexyloxy)-3-methyl-phenyl]-4-[(1-naphthyl)methyl]-2-oxo-7-thia-1-azabicyclo[4.3.0]nona-3,5,8-triene-9-carboxylic acid] |  |  | 25 (≈ 14.1 µg/mL) | 67 (≈ 37.9 µg/mL) | 9 (≈ 5.09 µg/mL) |  |  |  |  |  |  | 20 (≈ 11.3 µg/mL) | 25 (≈ 14.1 µg/mL) |  |  |  |  |  | 
COc1c(Cc2cccc3ccccc23)cc(=O)n2c(C(=O)O)c(-c3ccc(OCCCC(C)C)c(C)c3)sc12 [Example 50, 1H-imidazol-1-ium 8-methoxy-2-(3-methyl-4((4-methylpentyl)oxy)phenyl)-7-(naphtalen-1-ylmethyl)-5-oxo-thiazolo[3,2-a]pyridine-3-carboxylate] |  |  |  |  |  |  |  |  |  |  |  |  |  |  |  | about 0.5 log units |  |  | 
COc1c(Cc2cccc3ccccc23)cc(=O)n2c(C(=O)O)c(-c3ccc(OCCCC(C)C)c(C)c3)sc12 [Example 23, 8-[4-(Isohexyloxy)-3-methyl-phenyl]-5-methoxy-4-[(1-naphthyl)methyl]-2-oxo-7-thia-1-azabicyclo[4.3.0]nona-3,5,8-triene-9-carboxylic acid] |  |  |  | > 100 |  |  |  |  |  |  |  | 45 (≈ 25 µg/mL) |  | about 1.5 log units | about 0.4 log units |  |  |  | 
O=C(O)C1CSc2c(-c3cccc(C(F)(F)F)c3)c(Cc3cccc4ccccc34)cc(=O)n21 (centres unmarked) [Example 38, 6-[(1-Naphthyl)methyl]-4-oxo-7-[m-(trifluoromethyl)phenyl]-1-thia-3a-aza-3-indancarboxylic acid] | 200 (≈ 96.3 µg/mL) | 200 (≈ 96.3 µg/mL) | 250 (≈ 120 µg/mL) | 200 (≈ 96.3 µg/mL) |  | 50 (≈ 24.1 µg/mL) | 250 (≈ 120 µg/mL) | 250 (≈ 120 µg/mL) | 200 (≈ 96.3 µg/mL) | 50 (≈ 24.1 µg/mL) | 50 (≈ 24.1 µg/mL) | 200 (≈ 96.3 µg/mL) | 250 (≈ 120 µg/mL) |  |  |  |  |  | 
CCCCOc1ccc(-c2sc3c(C4CC4)c(Cc4cccc5ccccc45)cc(=O)n3c2C(=O)O)cc1C [Example 7, 8-(4-Butoxy-3-methyl-phenyl)-5-cyclopropyl-4-[(1-naphthyl)methyl]-2-oxo-7-thia-1-azabicyclo[4.3.0]nona-3,5,8-triene-9-carboxylic acid] |  |  | 19 (≈ 10.2 µg/mL) | 95 (≈ 51.1 µg/mL) | 7 (≈ 3.76 µg/mL) |  |  |  |  |  |  | 25 (≈ 13.4 µg/mL) | 32 (≈ 17.2 µg/mL) |  |  |  |  |  | 
CCOc1ccc(-c2sc3c(C4CC4)c(Cc4cccc5ccccc45)cc(=O)n3c2C(=O)O)cc1C [Example 5, 5-Cyclopropyl-8-(4-ethoxy-3-methyl-phenyl)-4-[(1-naphthyl)methyl]-2-oxo-7-thia-1-azabicyclo[4.3.0]nona-3,5,8-triene-9-carboxylic acid] |  |  |  | 250 (≈ 127 µg/mL) | 10 (≈ 5.1 µg/mL) |  |  |  |  |  |  | 150 (≈ 76.4 µg/mL) |  |  |  |  |  |  | 
O=C(O)c1c(Cc2ccccc2)sc2c(C3CC3)c(Cc3cccc4ccccc34)cc(=O)n12 [Example 28, 8-Benzyl-5-cyclopropyl-4-[(1-naphthyl)methyl]-2-oxo-7-thia-1-azabicyclo[4.3.0]nona-3,5,8-triene-9-carboxylic acid] | 50 (≈ 23.3 µg/mL) | 50 (≈ 23.3 µg/mL) | 100 (≈ 46.6 µg/mL) | 25 (≈ 11.6 µg/mL) |  | 25 (≈ 11.6 µg/mL) | 100 (≈ 46.6 µg/mL) | 50 (≈ 23.3 µg/mL) | 25 (≈ 11.6 µg/mL) | 25 (≈ 11.6 µg/mL) | 12.5 (≈ 5.82 µg/mL) | 25 (≈ 11.6 µg/mL) | 50 (≈ 23.3 µg/mL) | about 0.5 log units | about 0.4 log units |  |  |  | 
COc1ccc(-c2sc3c(C4CC4)c(Cc4cccc5ccccc45)cc(=O)n3c2C(=O)O)cc1C [Example 4, 5-Cyclopropyl-8-(4-methoxy-3-methyl-phenyl)-4-[(1-naphthyl)methyl]-2-oxo-7-thia-1-azabicyclo[4.3.0]nona-3,5,8-triene-9-carboxylic acid] |  |  |  | 250 (≈ 124 µg/mL) | 9 (≈ 4.46 µg/mL) |  |  |  |  |  |  | 200 (≈ 99.1 µg/mL) |  |  |  |  |  |  | 
CCCCCOc1ccc(-c2sc3c(C4CC4)c(Cc4cccc5ccccc45)cc(=O)n3c2C(=O)O)cc1 [Example 12, 5-Cyclopropyl-4-[(1-naphthyl)methyl]-2-oxo-8-[p-(pentyloxy)phenyl]-7-thia-1-azabicyclo[4.3.0]nona-3,5,8-triene-9-carboxylic acid] |  |  |  | 300 (≈ 161 µg/mL) | 2 (≈ 1.08 µg/mL) |  |  |  |  |  |  | 70 (≈ 37.6 µg/mL) | 25 (≈ 13.4 µg/mL) |  |  |  |  |  | 
CCCCCOc1ccc(-c2sc3c(C4CC4)c(Cc4cccc5ccccc45)cc(=O)n3c2C(=O)O)cc1C [Example 6, 5-Cyclopropyl-4-[(1-naphthyl)methyl]-2-oxo-8-[4-(pentyloxy)-3-methyl-phenyl]-7-thia-1-azabicyclo[4.3.0]nona-3,5,8-triene-9-carboxylic acid] |  |  | 100 (≈ 55.2 µg/mL) | 200 (≈ 110 µg/mL) | 23 (≈ 12.7 µg/mL) |  |  |  |  |  |  | 69 (≈ 38.1 µg/mL) | 37 (≈ 20.4 µg/mL) |  |  |  |  |  | 
Cc1onc(-c2ccccc2)c1C(=O)N[C@@H]1C(=O)N2[C@@H]1SC(C)(C)[C@@H]2C(=O)O [Oxacillin, oxacillin, reference compound] |  |  |  |  |  |  |  |  |  |  |  |  |  |  |  |  | 600 | 1.6E+10 | 2.2E+09
